Assay results as given in ChEMBL document CHEMBL5236640, “SAR study of 1,2-benzisothiazole dioxide compounds that agonize HIF-2 stabilization and EPO production” (Bioorg Med Chem, 2023).
Activity calls are given as the source filed them. The rule behind the calls is not given here.

How the values were obtained:
[1] = molecular target: Aryl hydrocarbon receptor nuclear translocator/Endothelial PAS domain-containing protein 1 (Homo sapiens) (UniProt P27540+Q99814); conditions: filed as agonist, dose 10.0 µM
[2] = molecular target: Endothelial PAS domain-containing protein 1 (Homo sapiens) (UniProt Q99814); assay: Synergistic agonist activity at human HIF-2alpha expressed in human Hep3B cells assessed as induction of EPO transcription at 5 uM pretreated with FG4592 followed by compound addition and measured after 12 hrs by qRT-PCR analysis; type: cell-based; conditions: filed as agonist
[3] = molecular target: Endothelial PAS domain-containing protein 1 (Homo sapiens) (UniProt Q99814); assay: Agonist activity at human HIF-2alpha expressed in human 786-0 cells assessed as increase in PGK1 transcription level at 20 uM incubated for 24 hrs by RT-PCR analysis relative to control; type: cell-based; conditions: filed as agonist
[4] = molecular target: Endothelial PAS domain-containing protein 1 (Homo sapiens) (UniProt Q99814); assay: Agonist activity at human HIF-2alpha expressed in human 786-0 cells assessed as increase in NDRG1 transcription level at 20 uM incubated for 24 hrs by RT-PCR analysis relative to control; type: cell-based; conditions: filed as agonist
[5] = molecular target: Endothelial PAS domain-containing protein 1 (Homo sapiens) (UniProt Q99814); assay: Agonist activity at human HIF-2alpha expressed in human 786-0 cells assessed as increase in GLUT1 transcription level at 20 uM incubated for 24 hrs by RT-PCR analysis relative to control; type: cell-based; conditions: filed as agonist
[6] = molecular target: Endothelial PAS domain-containing protein 1 (Homo sapiens) (UniProt Q99814); assay: Agonist activity at human HIF-2alpha expressed in human 786-0 cells assessed as increase in VEGFA transcription level at 20 uM incubated for 24 hrs by RT-PCR analysis relative to control; type: cell-based; conditions: filed as agonist
[7] = molecular target: Endothelial PAS domain-containing protein 1 (Homo sapiens) (UniProt Q99814); assay: Agonist activity at human HIF-2alpha expressed in human 786-0 cells assessed as increase in NDRG1 transcription level at 0.2 uM incubated for 24 hrs by RT-PCR analysis relative to control; type: cell-based; conditions: filed as agonist
[8] = molecular target: Endothelial PAS domain-containing protein 1 (Homo sapiens) (UniProt Q99814); assay: Agonist activity at human HIF-2alpha expressed in human 786-0 cells assessed as increase in VEGFA transcription level at 0.2 uM incubated for 24 hrs by RT-PCR analysis relative to control; type: cell-based; conditions: filed as agonist
[9] = molecular target: Endothelial PAS domain-containing protein 1 (Homo sapiens) (UniProt Q99814); assay: Agonist activity at human HIF-2alpha expressed in human 786-0 cells assessed as increase in VEGFA transcription level at 2 uM incubated for 24 hrs by RT-PCR analysis relative to control; type: cell-based; conditions: filed as agonist
[10] = molecular target: Endothelial PAS domain-containing protein 1 (Homo sapiens) (UniProt Q99814); assay: Agonist activity at human HIF-2alpha expressed in human 786-0 cells assessed as increase in NDRG1 transcription level at 2 uM incubated for 24 hrs by RT-PCR analysis relative to control; type: cell-based; conditions: filed as agonist

Chain of Aryl hydrocarbon receptor nuclear translocator/Endothelial PAS domain-containing protein 1 (Homo sapiens) (P27540 2-789 limits assumed): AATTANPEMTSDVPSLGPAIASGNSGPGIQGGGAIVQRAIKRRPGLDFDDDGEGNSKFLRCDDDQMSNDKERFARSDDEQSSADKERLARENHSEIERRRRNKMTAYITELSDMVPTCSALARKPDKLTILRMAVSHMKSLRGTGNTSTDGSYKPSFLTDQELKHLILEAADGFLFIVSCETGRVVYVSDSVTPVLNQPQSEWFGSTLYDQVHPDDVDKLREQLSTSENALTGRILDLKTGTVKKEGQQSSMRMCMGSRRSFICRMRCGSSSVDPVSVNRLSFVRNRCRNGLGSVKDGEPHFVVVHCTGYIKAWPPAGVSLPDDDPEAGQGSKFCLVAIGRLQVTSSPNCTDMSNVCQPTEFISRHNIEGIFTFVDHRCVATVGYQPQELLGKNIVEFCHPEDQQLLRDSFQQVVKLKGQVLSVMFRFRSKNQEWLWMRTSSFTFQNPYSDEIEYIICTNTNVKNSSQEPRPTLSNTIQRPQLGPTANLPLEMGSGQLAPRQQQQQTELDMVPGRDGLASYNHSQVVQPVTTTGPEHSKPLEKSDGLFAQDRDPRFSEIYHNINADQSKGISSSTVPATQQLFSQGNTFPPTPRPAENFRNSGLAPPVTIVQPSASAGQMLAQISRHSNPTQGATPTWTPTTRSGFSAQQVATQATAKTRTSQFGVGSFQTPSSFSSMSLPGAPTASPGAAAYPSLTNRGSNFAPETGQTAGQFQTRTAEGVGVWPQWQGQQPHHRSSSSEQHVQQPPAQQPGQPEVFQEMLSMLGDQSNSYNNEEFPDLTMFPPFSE
Chain of Aryl hydrocarbon receptor nuclear translocator/Endothelial PAS domain-containing protein 1 (Homo sapiens) (Q99814 whole entry partner, the tested form may be a part): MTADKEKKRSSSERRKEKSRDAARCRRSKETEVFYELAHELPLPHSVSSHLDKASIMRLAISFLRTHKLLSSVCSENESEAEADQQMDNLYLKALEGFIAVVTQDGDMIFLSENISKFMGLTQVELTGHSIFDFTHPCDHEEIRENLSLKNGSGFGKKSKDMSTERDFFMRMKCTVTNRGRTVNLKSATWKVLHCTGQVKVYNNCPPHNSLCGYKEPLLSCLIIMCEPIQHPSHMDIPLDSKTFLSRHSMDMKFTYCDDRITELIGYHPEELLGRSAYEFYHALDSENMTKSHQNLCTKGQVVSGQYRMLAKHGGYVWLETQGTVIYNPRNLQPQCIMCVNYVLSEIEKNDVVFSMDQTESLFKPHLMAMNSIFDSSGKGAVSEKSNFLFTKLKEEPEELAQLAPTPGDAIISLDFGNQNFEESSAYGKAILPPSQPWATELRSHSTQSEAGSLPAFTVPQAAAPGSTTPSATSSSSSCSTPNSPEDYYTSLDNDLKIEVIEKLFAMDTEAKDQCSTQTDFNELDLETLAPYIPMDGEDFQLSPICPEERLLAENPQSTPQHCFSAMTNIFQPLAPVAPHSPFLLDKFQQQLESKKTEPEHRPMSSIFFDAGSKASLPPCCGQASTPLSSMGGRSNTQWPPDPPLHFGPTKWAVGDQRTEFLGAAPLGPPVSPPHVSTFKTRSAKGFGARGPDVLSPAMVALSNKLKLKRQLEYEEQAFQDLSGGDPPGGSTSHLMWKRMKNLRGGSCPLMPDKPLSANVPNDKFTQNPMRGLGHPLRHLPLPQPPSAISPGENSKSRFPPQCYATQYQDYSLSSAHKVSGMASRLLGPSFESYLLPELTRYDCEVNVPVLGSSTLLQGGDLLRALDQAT
Chain of Endothelial PAS domain-containing protein 1 (Homo sapiens) (Q99814 whole entry, the tested form may be a part): as the sequence (Q99814 whole entry partner, the tested form may be a part) above

Row | Structure (SMILES) | ΔTm [1] | Activity [2] | Activity [3] | Activity [4] | Activity [6] | also measured
1 | COc1ccc2c(c1)C(Nc1cc(C(F)(F)F)cc(C(F)(F)F)c1)=NS2(=O)=O | -0.29 °C |  |  |  |  | 
2 | COC(=O)c1cc(NC2=NS(=O)(=O)c3ccccc32)cc(C(=O)OC)c1 | 0.02 °C |  |  |  |  | 
3 | O=S1(=O)C=C(Nc2cc(C(F)(F)F)cc(C(F)(F)F)c2)c2ccccc21 | 0.44 °C | Active |  |  |  | 
4 | O=S1(=O)N=C(Nc2ccc(C(F)(F)F)cc2)c2ccccc21 | 0.44 °C | Active | 90% | 95.1% | 85.7% | Activity [5]: 76.8%
5 | N#Cc1cccc(NC2=NS(=O)(=O)c3ccccc32)c1 | 0.07 °C |  |  |  |  | 
6 | CS(=O)(=O)c1cc(NC2=NS(=O)(=O)c3ccccc32)cc(S(C)(=O)=O)c1 | 0 °C |  |  |  |  | 
7 | N#Cc1ccc2c(c1)C(Nc1cc(C(F)(F)F)cc(C(F)(F)F)c1)=NS2(=O)=O | 0.83 °C | Active |  |  |  | 
8 | O=S1(=O)N=C(Nc2cc(C(F)(F)F)cc(C(F)(F)F)c2)c2ccc(Br)cc21 | 0.07 °C | Active |  |  |  | 
9 | N#Cc1cc(NC2=NS(=O)(=O)c3ccccc32)cc(C(F)(F)F)c1 | 0.96 °C | Active |  |  |  | 
10 | CN(C1=NS(=O)(=O)c2ccccc21)c1cc(C(F)(F)F)cc(C(F)(F)F)c1 | 0.44 °C | Active | 97% | 96.6% | 124% | 
11 | O=S1(=O)N=C(Nc2cccc(F)c2F)c2ccccc21 | -0.15 °C |  |  |  |  | 
12 | O=S1(=O)N=C(Nc2cc(F)cc(F)c2)c2ccc(Br)cc21 | -0.06 °C |  |  |  |  | 
13 | O=S1(=O)N=C(Nc2cc(C(F)(F)F)cc(C(F)(F)F)c2)c2cc(Cl)ccc21 | -0.1 °C |  |  |  |  | 
14 | O=S1(=O)N=C(Nc2cc(F)cc(F)c2)c2cc(Br)ccc21 | 0.37 °C | Active |  |  |  | 
15 | CC(=O)c1cccc(NC2=NS(=O)(=O)c3ccccc32)c1 | -0.13 °C |  |  |  |  | 
16 | O=S1(=O)N=C(Nc2ccccc2F)c2ccccc21 | 0.22 °C |  |  |  |  | 
17 | O=S1(=O)N=C(Nc2ccc(F)cc2F)c2ccccc21 | 0.14 °C |  |  |  |  | 

Row | Structure (SMILES) | ΔTm [1] | Activity [2] | Activity [3] | Activity [4] | Activity [6] | also measured
18 | O=S1(=O)N=C(Nc2cccc(C(F)(F)F)c2)c2ccccc21 | 0.74 °C | Active | 102% | 89.4% | 77.9% | Activity [5]: 80.9%
19 | O=S1(=O)N=C(Nc2cc(C(F)(F)F)cc(C(F)(F)F)c2)c2cc(F)ccc21 | -0.14 °C |  |  |  |  | 
20 | FC(F)(F)c1cc(Nc2csc3ccccc23)cc(C(F)(F)F)c1 | 0.1 °C |  | 62% | 92.1% | 102% | Activity [5]: 87.4%
21 | O=S1(=O)N=C(Nc2ccc(F)cc2)c2ccccc21 | 0.3 °C |  |  |  |  | 
22 | O=S1(=O)N=C(Nc2ccc(F)c(F)c2)c2ccccc21 | 0.29 °C | Active |  |  |  | 
23 | O=S1(=O)N=C(Nc2cc(F)ccc2F)c2ccccc21 | 0.07 °C |  |  |  |  | 
24 | O=S1(=O)N=C(Nc2ccccc2)c2ccccc21 | 0.02 °C |  | 90% | 126% | 140% | Activity [5]: 96.3%
25 | O=S1(=O)N=C(Nc2cc(F)cc(F)c2)c2ccccc21 | 0.55 °C | Active | 72% | 214% | 146% | Activity [5]: 185%
26 | COc1cc(NC2=NS(=O)(=O)c3ccccc32)cc(OC)c1 | 0 °C | Active |  |  |  | 
27 | O=S1(=O)N=C(Oc2cc(C(F)(F)F)cc(C(F)(F)F)c2)c2ccccc21 | 0.07 °C | Active | 124% | 97.6% | 105% | 
28 | O=S1(=O)N=C(Nc2cc(C(F)(F)F)cc(C(F)(F)F)c2)c2ccccc21 | 0.89 °C | Active | 55% | 272% | 161% | Activity [5]: 132%
29 | O=S1(=O)N=C(Nc2cccc(F)c2)c2ccccc21 | 0.17 °C |  |  |  |  | 
30 | O=S1(=O)N=C(Nc2cc(C(F)(F)F)cc(C(F)(F)F)c2)c2cc(Br)ccc21 | 0.87 °C | Active | 117% | 432% | 265% | Activity [7]: 88%; Activity [8]: 93.3%; Activity [9]: 116%; Activity [5]: 218%; Activity [10]: 110%
31 | COC(=O)c1cc(C#N)cc(NC2=NS(=O)(=O)c3ccccc32)c1 | 1.28 °C | Active |  |  |  | 
32 | O=C(O)c1cc(NC2=NS(=O)(=O)c3ccccc32)cc(C(=O)O)c1 | 0.74 °C | Active |  |  |  | 
33 | [O-][s+]1cc(Nc2cc(C(F)(F)F)cc(C(F)(F)F)c2)c2ccccc21 (stereo unspecified) | 0.17 °C |  | 127% | 87.4% | 111% | Activity [5]: 108%
